What was measured:
Assay type in all cases: cell-based, Human
MCF-7 [1] = experiment: Photodynamic therapy in 3D cultured breast cancer tissue, live/dead staining; details: 3D tissue, perfusion 4 hours, broadband halogen light 1 minute, stained after overnight culture
Method: A photosensitizer precursor drug, aminolevulinic acid (5-ALA) was supplemented in the culture media delivered to a 3D cultured breast cancer tissue (MCF-7), and allowed to infiltrate the tissue via perfusion for 4 hours to emulate microinjection. After cellular uptake, 5-ALA was converted into photosensitive protoporphyrin (PpIX). […] High ROS concentrations led to cell destruction. To determine the extent of cell damage, the culture was stained with a live/dead staining kit (Sigma) after overnight culture and examined with a Leica confocal microscope.

MCF-7 [2] = experiment: Photodynamic therapy in 2D culture, live/dead staining
Text: […] After cellular uptake, 5-ALA was converted into photosensitive protoporphyrin (PpIX). […] High ROS concentrations led to cell destruction. To determine the extent of cell damage, the culture was stained with a live/dead staining kit (Sigma) after overnight culture and examined with a Leica confocal microscope.

MCF-7 [3] = experiment: Drug evaluation in microfluidic 3D breast cancer tissue culture (tissue nodules); details: flow 0.8 μL/min, one week, 3D microfluidic culture
Method: Human breast cancer cells (from immortalized cell line MCF-7) were incubated in a tissue culture chamber for 2 weeks with a continuous media flow at 0.8 μL/min. Initial cell attachment was seen across the entire chamber surface and continuously proliferated over time to form a 3D tissue layer having a depth of about 70-100 μm. […] These structures were similar to those observed in the earliest stages of tumor formation. A majority of the cells remained viable.
In contrast to pure cultures of breast cancer cells, co-cultures with stromal cells stimulate breast cancer cells. […] At three weeks of incubation, the nodule-like structures had become large enough to be recognized under a microscope, reaching 80-150 μm in diameter. Based on histological staining, the organization of these cells was consistent with their cancerous origin. The cells appeared to be transformed, having an increased nuclear/cytoplasmic ratio, and the cell mass was disorganized.
Doxorubicin (Dox), a known anticancer drug, was first tested using the microfluidic breast tissue culture described in the preceding examples. Dox was delivered to the tissue nodules at 10 nM and 1 μM, respectively, at a flow rate of 0.8 μL/min of medium via the inlet for one week.
A new lytic anticancer peptide (L5) was designed and synthesized to interact with cell membranes and therefore disrupt membrane integrity and destroy cells. The peptide drug was delivered to the tissue nodules at 30 μg/mL in the medium at a flow rate of 0.8 μL/min of medium via inlet for 2 days. […] Occasionally, some nuclei were still seen in the remaining tissue matrix. […] This may be due to a reduced rate of diffusion of the drug to the area of the surviving cells. This finding highlights the value of using the microfluidic culture model for drug assessment as it provides a more accurate representation of the 3D cellular organization encountered in vivo. It also hints at a plausible explanation to why some breast cancer therapies fail in vivo or why recurrence and multidrug resistance occurs after chemotherapy. […]

Row | Structure (SMILES) | cells killed after PDT treatment (MCF-7 [1]) | cells killed after PDT treatment (MCF-7 [2]) | progression of tumor nodules (real-time images) (MCF-7 [3]; 10 nM in medium) | formation of dark nodules (real-time images) (MCF-7 [3]; 1 μM in medium) | tissue growth (MCF-7 [3]; 1 μM in medium)
1 | NCC(=O)CCC(=O)O [5-ALA, aminolevulinic acid] | about 50% | about 70% |  |  | 
2 | COc1cccc2c1C(=O)c1c(O)c3c(c(O)c1C2=O)C[C@@](O)(C(=O)CO)C[C@@H]3O[C@H]1C[C@H](N)[C@H](O)[C@H](C)O1 [Dox, Doxorubicin] |  |  | continuous progression of tumor nodules was observed | No obvious formation of dark nodules was observed | continuous tissue growth was noticed
